According to US12171766B2, “Methods of treating patients suffering from brain injury and methods of increasing the value of the extended Glasgow Outcome Scale of patients suffering from brain injury” (VERINOS OPERATIONS GMBH, priority 2021, dated 2024):

System: adult intensive care patients with acute moderate and severe TBI
Test: NOSTRA phase III trial: Extended Glasgow Outcome Scale (eGOS) at 3 and 6 months, Ronopterin 17 mg/kg infused over 48 hours vs placebo, incl. post hoc subgroup analyses
Assay type: in vivo, human
Conditions: for Good Recovery (eGOS ≥ 7) at 6 months, Odds ratio, 95% CI / Improvement in eGOS from 3 to 6 months, at least + 1 eGOS level, Odds ratio, 95% CI / Good Recovery (eGOS ≥ 7) at 3 months, Odds ratio, 95% CI: vs placebo
Protocol: A phase III trial of Ronopterin infusion to adult TBI patients (18-60 years) with acute moderate and severe TBI was performed. Based on the results of the earlier phase II study, the NOSTRA (NO Synthase in TRAumatic Brain Injury) phase III trial was designed to detect clinically relevant differences in clinical outcome (Extended Glasgow Outcome Score at 6 months after injury) as primary endpoint.
NOSTRA III was a multicentre, prospective, two parallel groups, blinded, placebo-controlled, randomised phase III trial of Ronopterin infusion for 48 hours in adult intensive care patients with acute moderate and severe TBI. […] The detailed study protocol is described by Tegtmeier et al. Efficacy of Ronopterin (VAS203) in Patients with Moderate and Severe Traumatic Brain Injury (NOSTRA phase III trial): study protocol of a confirmatory, placebo-controlled, randomised, double blind, multi-centre study. Trials. 2020. A total of 224 evaluable patients with moderate and severe TBI were enrolled in 32 centres in Austria, France, Germany, Spain, and United Kingdom. The trial started on 24 Aug. 2016 with last-patient last-visit on 17 Jun. 2020.
Patients between 18 and 60 years of age with Glasgow Coma Score≥3 requiring intracranial pressure (ICP) monitoring were enrolled. Other inclusion criteria were TBI within the last 18 hours but at least 6 hours after the injury, which were expected to survive more than 24 hours after admission.
Ronopterin and placebo (0.9% saline) were infused continuously via central venous catheter at a constant rate. A total dose of 17 mg/kg body weight of Ronopterin was infused for 48 hours (daily dose 8.5 mg/kg body weight).
The primary outcome was the difference between eGOS in Ronopterin and placebo treated patients at 6 months after trauma. The eGOS was determined by a face to face meeting by trained assessors.
The null-hypothesis of no shift across the 8 ordered categories of eGOS for the two treatment groups was tested after six months based on a proportional odds model stratified by age (18-39 years and 40-60 years). The treatment effect was estimated using ordinal Logistic regression model as the (proportional) odds ratio of Ronopterin versus Placebo. Treatment and age (18-39 years and 40-60 years) were included in the model. The proportional odds assumption was tested using a Chi-Square Score Test.
As secondary efficacy endpoint the eGOS at 3 months was analysed using the same statistics.
The main objective of the post hoc analyses was to estimate the effect size of VAS203 compared with placebo for the primary endpoint eGOS-I in the subgroups time to infusion ≤12 hours and >12 hours. Supportive analyses were conducted by age group (<40 years, ≥40 years) because age group was used as a stratification factor in the study. Comparability between treatment groups regarding demographics as well as severity and location of disease was investigated using similar methods as in the main CSR.
The proportions of patients per eGOS-I level at 3 months and at 6 months were calculated. For the change in eGOS-I over time, the proportion of patients with changes from 3 to 6 months were calculated by eGOS-I level, and in addition categorised as decreased (i.e. any decrease in eGOS-I level from 3 to 6 months), unchanged (i.e. no change in eGOS-I level from 3 to 6 months), and increased (i.e. any increase in eGOS-I level from 3 to 6 months).
Ordinal logistic regression was used for the analysis of eGOS-I at 3 months and at 6 months, including treatment group and age group (<40 years, ≥40 years) as factors in the model. Estimated odds ratios for the comparison of the VAS203 and placebo groups of >1 mean that eGOS-I was higher in the VAS203 group than in the placebo group across the 8 levels, whereas odds ratios of <1 mean that eGOS-I was lower in the VAS203 group than in the placebo group. Odds ratios together with their 95% CIs were used to estimate and assess the size of the treatment effect of VAS203 compared to placebo. […]

## CC(O)C(O)C1CNc2nc(N)nc(N)c2N1 [Ronopterin, 4-Amino-(6R,S)-5,6,7,8-tetrahydro-L-biopterin]
All females 40-60 years (so in the source), >12 hours
  Good Recovery (eGOS ≥ 7) at 6 months, Odds ratio, 95% CI: 5.5 (0.6-53);
All females, all times to infusion
  Good Recovery (eGOS ≥ 7) at 6 months, Odds ratio, 95% CI: 2.8 (0.6-12.6); n = 44
All males 18-60 years and young females 18-39 years, ≤12 hours
  Improvement in eGOS from 3 to 6 months, at least + 1 eGOS level, Odds ratio, 95% CI: 3.4 (1.2-10.2);
All males 18-60 years, ≤12 hours
  Improvement in eGOS from 3 to 6 months, at least + 1 eGOS level, Odds ratio, 95% CI: 3.7 (1.1-12);
All males plus females 18-39 years, ≤12 hours
  Good Recovery (eGOS ≥ 7) at 6 months, Odds ratio, 95% CI: 2.4 (0.8-7.6);
Female, 18-39 years, >12 hours
  Good Recovery (eGOS ≥ 7) at 3 months, Odds ratio, 95% CI: 6.5 (0.27-161);
  Good Recovery (eGOS ≥ 7) at 6 months, Odds ratio, 95% CI: 2.3 (0.2-33);
  Improvement in eGOS from 3 to 6 months, at least + 1 eGOS level, Odds ratio, 95% CI: 0.3 (0.04-2.8);
Female, 18-39 years, ≤12 hours
  Good Recovery (eGOS ≥ 7) at 3 months, Odds ratio, 95% CI: 1.5 (0.06-41);
  Good Recovery (eGOS ≥ 7) at 6 months, Odds ratio, 95% CI: 6.0 (0.2-163);
  Improvement in eGOS from 3 to 6 months, at least + 1 eGOS level, Odds ratio, 95% CI: 1.5 (0.06-41);
Female, 40-60 years, >12 hours
  Good Recovery (eGOS ≥ 7) at 3 months, Odds ratio, 95% CI: 4.2 (0.2-102);
  Good Recovery (eGOS ≥ 7) at 6 months, Odds ratio, 95% CI: 6.2 (0.3-147);
  Improvement in eGOS from 3 to 6 months, at least + 1 eGOS level, Odds ratio, 95% CI: 1.3 (0.1-18);
Female, 40-60 years, ≤12 hours
  Good Recovery (eGOS ≥ 7) at 3 months, Odds ratio, 95% CI: 1.3 (0.02-83);
  Good Recovery (eGOS ≥ 7) at 6 months, Odds ratio, 95% CI: 0.3 (0.01-11.3);
  Improvement in eGOS from 3 to 6 months, at least + 1 eGOS level, Odds ratio, 95% CI: 0.3 (0.01-11.3);
Females 18-39 years, all times to infusion
  Good Recovery (eGOS ≥ 7) at 3 months, Odds ratio, 95% CI: 4.2 (0.4-47); n = 23
Females 40-60 years, all times to infusion
  Good Recovery (eGOS ≥ 7) at 3 months, Odds ratio, 95% CI: 5.7 (0.3-126); n = 21
Male, 18-39 years, >12 hours
  Good Recovery (eGOS ≥ 7) at 3 months, Odds ratio, 95% CI: 0.2 (0.03-0.85);
  Improvement in eGOS from 3 to 6 months, at least + 1 eGOS level, Odds ratio, 95% CI: 0.7 (0.2-1.9);
Male, 18-39 years, time to infusion >12 hours
  Good Recovery (eGOS ≥ 7) at 6 months, Odds ratio, 95% CI: 0.6 (0.2-1.6);
Male, 18-39 years, time to infusion ≤12 hours
  Good Recovery (eGOS ≥ 7) at 6 months, Odds ratio, 95% CI: 1.4 (0.3-5.9);
Male, 18-39 years, ≤12 hours
  Good Recovery (eGOS ≥ 7) at 3 months, Odds ratio, 95% CI: 0.4 (0.08-2.2);
  Improvement in eGOS from 3 to 6 months, at least + 1 eGOS level, Odds ratio, 95% CI: 5.4 (1.1-26);
Male, 40-60 years, >12 hours
  Good Recovery (eGOS ≥ 7) at 3 months, Odds ratio, 95% CI: 0.2 (0.02-1.4);
  Good Recovery (eGOS ≥ 7) at 6 months, Odds ratio, 95% CI: 0.6 (0.2-2.2);
  Improvement in eGOS from 3 to 6 months, at least + 1 eGOS level, Odds ratio, 95% CI: 0.98 (0.3-2.8);
Male, 40-60 years, ≤12 hours
  Good Recovery (eGOS ≥ 7) at 3 months, Odds ratio, 95% CI: 0.7 (0.01-38);
  Good Recovery (eGOS ≥ 7) at 6 months, Odds ratio, 95% CI: 9.0 (0.4-194);
  Improvement in eGOS from 3 to 6 months, at least + 1 eGOS level, Odds ratio, 95% CI: 2.3 (0.4-14.6);
Age 18-39 years, >12 hours (FIG. 7E)
  increase in eGOS levels from 3 to 6 months: up to 3 levels
Age 18-39 years, >12 hours (FIG. 7G)
  number of patients with increase in eGOS by at least 2 levels from 3 to 6 months: 10
Age 18-39 years, all times to infusion
  less patients with decrease in eGOS over time vs placebo: significance: not significant
Age 18-39 years, all times to infusion (FIG. 6A)
  increase in eGOS levels from 3 to 6 months: up to 3 levels
Age 18-39 years, all times to infusion (FIG. 6C)
  number of patients with increase in eGOS by at least 2 levels from 3 to 6 months: 14
Age 18-39 years, all times to infusion (FIG. 6D)
  more patients with higher increase in eGOS over time vs placebo: significance: not significant
Age 18-39 years, ≤12 hours (FIG. 7A)
  increase in eGOS levels from 3 to 6 months: up to 3 levels
Age 18-39 years, ≤12 hours (FIG. 7B, 7D)
  increase in proportion of patients with an eGOS increase by at least 1 level compared to Placebo: significance: significant
Age 18-39 years, ≤12 hours (FIG. 7C)
  number of patients with increase in eGOS by at least 2 levels from 3 to 6 months: 4
Age 40-60 years, >12 hours (FIG. 9E)
  increase in eGOS levels from 3 to 6 months: up to 4 levels
Age 40-60 years, >12 hours (FIG. 9G)
  number of patients with increase in eGOS by at least 2 levels from 3 to 6 months: 5
Age 40-60 years, all times to infusion
  less patients with a decrease in eGOS over time vs placebo: significance: not (statistically) significant
Age 40-60 years, all times to infusion (FIG. 8A)
  increase in eGOS levels from 3 to 6 months: up to 4 levels
